Source: US20240359037A1, “Ultrasound Method” (ACT THERAPEUTICS LTD, priority 2021, published 2024)

System: subcutaneous prostate cancer model (PC3)
Experiment: Tumour specific uptake of Evans Blue vs. Enhancement MI
Type: in vivo, mice
Conditions: Enhancement 0.5 MHz MI 0.2 compared to MI=0 (no ultrasound); 30 min after treatment
Protocol: To investigate the effect of MI variance of the US Enhancement field, tumour specific uptake of Evans Blue (EB, fluorescent dye) has been investigated in a subcutaneous prostate cancer model (PC3) in mice. Five groups with Enhancement insonation MIs of 0, 0.1, 0.2, 0.3 and 0.4 were investigated (N=3 animals per group). […] 30 min after treatment, the tumours were excised and the amount of EB was measured by spectrophotometry at 620 nm.

With `Cc1cc(-c2ccc(/N=N/c3ccc4c(S(=O)(=O)O)cc(S(=O)(=O)O)c(N)c4c3O)c(C)c2)ccc1/N=N/c1ccc2c(S(=O)(=O)O)cc(S(=O)(=O)O)c(N)c2c1O` [Evans Blue] as the compound, how does the “increase in tumour specific uptake” value read?
Its value is about 60%.
